Laboratory results: ChEMBL document CHEMBL4130595, “Antitubercular Nitroimidazoles Revisited: Synthesis and Activity of the Authentic 3-Nitro Isomer of Pretomanid” (ACS Med Chem Lett, 2017)
pIC50: −log10 of the molar value. Values after ≈ are worked out from the molar mass of the structure shown.

Key:
[1] = test system: Mycobacterium tuberculosis; assay: Antitubercular activity against Mycobacterium tuberculosis H37Rv measured after 7 days under aerobic condition by alamar blue assay; assay type: functional; details: 168 h
[2] = test system: Mycobacterium tuberculosis; assay: Antitubercular activity against Mycobacterium tuberculosis H37Rv ATCC 27294 incubated for 10 days under low oxygen condition followed by second incubation under aerobic condition for 28 hrs by LORA; assay type: functional
Vero = assay: Cytotoxicity against African green monkey Vero cells after 72 hrs by MTS/PMS assay; assay type: cell-based; details: Chlorocebus sabaeus

| Compound | MIC [1] | MIC [2] | pIC50 (Vero) |
| --- | --- | --- | --- |
| Cc1cc(CO[C@@H]2COc3nc([N+](=O)[O-])cn3C2)ccc1OC(F)(F)F | 0.063 µM (≈ 0.0235 µg/mL) | 1 µM (≈ 0.373 µg/mL) | < 3.89 |
| O=[N+]([O-])c1cnc2n1C[C@H](OCc1ccc(OC(F)(F)F)cc1)CO2 | > 128 µM | > 128 µM | < 3.89 |
| O=[N+]([O-])c1cnc2n1C[C@H](O)CO2 | > 128 µM | > 128 µM | < 3.89 |
| COc1nc2ccc(Br)cc2cc1[C@@H](c1ccccc1)[C@@](O)(CCN(C)C)c1cccc2ccccc12 [BEDAQUILINE] | 0.07 µM (≈ 0.0389 µg/mL) | 0.11 µM (≈ 0.0611 µg/mL) | < 5.00 |
| NNC(=O)c1ccncc1 [ISONIAZID] | 0.34 µM (≈ 0.0466 µg/mL) | > 128 µM | – |
| CC(=O)NC[C@H]1CN(c2ccc(N3CCOCC3)c(F)c2)C(=O)O1 [LINEZOLID] | 2.9 µM (≈ 0.978 µg/mL) | 2.8 µM (≈ 0.945 µg/mL) | – |
| Cc1ncc([N+](=O)[O-])n1CCO [METRONIDAZOLE] | > 512 µM | 79 µM (≈ 13.5 µg/mL) | – |
| COc1c(N2C[C@@H]3CCCN[C@@H]3C2)c(F)cc2c(=O)c(C(=O)O)cn(C3CC3)c12 [MOXIFLOXACIN] | 0.42 µM (≈ 0.169 µg/mL) | > 128 µM | – |
| CO[C@H]1/C=C/O[C@@]2(C)Oc3c(C)c(O)c4c(O)c(c(/C=N/N5CCN(C)CC5)c(O)c4c3C2=O)NC(=O)/C(C)=C\C=C\[C@H](C)[C@H](O)[C@@H](C)[C@@H](O)[C@@H](C)[C@H](OC(C)=O)[C@@H]1C [RIFAMPIN] | 0.049 µM (≈ 0.0403 µg/mL) | 0.64 µM (≈ 0.527 µg/mL) | < 4.00 |
